Results from patent publication US20050271588A1, “Liposome targeting of matrix metalloproteinase inhibitors” (priority 2001, published 2005).
Positions of bridges follow the written chain, without caps; N, C: chain ends. Residues, ends and D or L forms follow the SMILES beside them.

Columns and labels:
[1] = Trp quenching by I- (Stern-Volmer); type: physicochemical; details: I- quencher
Procedure: The extent of exposure of Trp to the aqueous phase was studied using I— as a collisional quencher (Lakowicz, 1999). The extent of quenching was calculated by using the equation: F0/F=1+k[Q]=1+kqτ0[Q] where F0 and F are Trp fluorescence intensities at 345 nm in the absence and presence of the quencher, Q, τ0 is Trp fluorescence lifetime in the absence of the quencher, k is the Stern-Volmer constant (obtained from the slope of the linear fit of the data). Fluorescence of Trp in CTT (5 μM) and its quenching were measured in the absence and presence of POPC/POPE (80:20, mol/mol) LUVs (final lipid concentration of 0.5 mM). The results were corrected for background caused by PBS and liposomes. Assay for lipid mixing. The ability of the CTT, CLP, STT, and CWL peptides to induce liposome fusion was assessed by measuring lipid mixing, as described earlier (Struck et al., 1981). In brief, NBD-PE (X=0.01) and DPPRho (X=0.01) were incorporated into liposomes (POPC/POPE, 78/20, mol/mol). Due to the spectral overlap of NBD-PE (donor) emission and DPPRho (acceptor) absorption resonance energy transfer between these dyes is highly efficient. As liposomes containing NBD-PE and DPPRho are mixed with non-labeled liposomes, fusion is observed as an increase in the emission intensity of NBD-PE due to the dilution of probes. […] All fluorescence measurements were done at 37° C.

[2] = tested on: U937 cells; assay: Uptake of liposome-encapsulated rhodamine B by U937 cells; type: cell-based
Procedure: In another series of experiments the water-soluble fluorescent marker rhodamine B was encapsulated into liposomes and its uptake by cells was measured. Samples for rhodamine B uptake were prepared by mixing 60 μl of POPC/POPE (80/20, mol/mol, one mM) liposomes containing 10 μM rhodamine B to 300 μl of DMEM medium supplemented with 10% fetal bovine serum, Glutamax I, penicillin 100 U/ml and streptomycin 0.1 mg/ml. Peptides were then added to obtain a final concentration of […]. Ten μl (10^5 cells) of medium containing the indicated cells were combined with the LUVs. After an incubation for 15 min at 37° C. or +4° C. liposomes not bound to the cells were removed from 96-well plates by rinsing three times with cold PBS. The +4° C. temperature served as a control for non-endocytotic liposome uptake by cells (Oess and Hildt, 2000). The relative amount of rhodamine B associated with the cells was determined using microplate reader with excitation at 535 nm and emission at 595 nm.
We also preincubated cells with phorbol ester (TPA) (50 nM). Preincubation times varied from 15 to 75 min. Treatment of cells by phorbol ester (TPA) increases both expression and secretion of MMP-9 (Toth et al., 1997). Results are presented as RFI=I/I0, where RFI is relative fluorescence intensity, I0 is the emission intensity for the control, 2 μM rhodamine B in LUVs without the peptides, and I is the rhodamine emission for the peptide-liposome complexes taken up by the cells. […] M-17 inhibits the binding of MMP-9 to the substrate and this inhibition is expected to be concentration dependent. It is not known if rabbit polyclonal antibody blocks human MMP-2 (Murphy et al., 1994). Final concentrations of the indicated peptide, […] were 85 μM, 0.2 mM, 20 μg/ml, and 0.4 μM, respectively.
Cell cultures and fluorescence microscopy. U937 (ECACC 85011440), HT 1080 (ECACC 85111505), and CHO (ECACC 85050302) cells were cultured in RPMI or DMEM medium supplemented with 10% fetal bovine serum, Glutamax I, penicillin (100 U/ml), and streptomycin (0.1 mg/ml). Uptake of rhodamine B containing liposomes by the cultured cells was verified by fluorescence microscopy. An inverted fluorescence microscope (Zeiss IM 35) equipped with Nikon extra long working distance objectives (20×) and (40×) were used. Samples were prepared as described for the rhodamine uptake assay, with slight modifications. Accordingly, instead of washing, U937, HT 1080, and CHO cells with the rhodamine-containing liposomes and in cell culture medium were transferred into Nunclon 48 plate wells. Excitation and emission wavelengths were selected by suitable bandpass filters (Melles-Griot) transmitting in the range 535 nm and >600 nm, respectively. Fluorescence images were viewed with a Peltier-cooled digital camera (C4742-95, Hamamatsu, Japan) connected to a computer and operated by software (Hipic 5.0) provided by the instrument manufacturer.

[3] = tested on: endothelial and tumor cell migration; details: cited from earlier work

Stern-Volmer constant ([1]; absence of liposomes): 0.0087 | Stern-Volmer constant ([1]; presence of liposomes): 0.0034
Structure (SMILES): CC(C)C[C@@H]1NC(=O)[C@H]([C@@H](C)O)NC(=O)[C@H](Cc2ccccc2)NC(=O)CNC(=O)[C@H](Cc2c[nH]c3ccccc23)NC(=O)[C@H](Cc2c[nH]cn2)NC(=O)[C@H]([C@@H](C)O)NC(=O)[C@H]([C@@H](C)O)NC(=O)[C@@H](N)CSSC[C@@H](C(=O)O)NC1=O [CTT] (H-CTTHWGFTLC-OH; disulfide 1-10; N-terminus and C-terminus assumed)
Enhancement of uptake of liposome-encapsulated rhodamine vs liposomes lacking peptide ([2]; U937, fluorescence plate-reader): 3.6 fold | Rhodamine intake, fluorescence microscopy ([2]; U937, liposomes with vs without CTT): enhanced | Uptake of free rhodamine B ([2]; no liposomes): did not promote | Endothelial and tumor cell migration in vitro [3]: inhibited
